Experimental data published in patent EP4763206A1, “AGENT FOR SUPPRESSING AGGREGATION OF TDP-43, AGENT FOR SUPPRESSING CELL DEATH OF CELLS IN WHICH TDP-43 IS OVEREXPRESSED, AND AGENT FOR PREVENTING OR TREATING DISEASES ASSOCIATED WITH AGGREGATION OF TDP-43” (Socium Inc., priority 2023, dated 2025).
“Also recorded” adds a separate entry of the source. Where two headings read alike, the source gives them in different places.

Tests used:
[1] = cited from earlier work
[2] = Reported human pharmacokinetics of D-cycloserine; type: in vivo, humans; conditions: estimated; 15 mg orally administered twice daily
[3] = test system: Neuro2a cells; assay: Cell death suppression by D-cycloserine combined with edaravone in TDP-43-transfected Neuro2a cells (Example 1); type: cell-based; conditions: Mus musculus, N2a
Method: Neuro2a cells were seeded on a dish. On the first day after seeding, differentiation into neurons was initiated. On the fourth day after seeding, cells were transfected with the TDP-43 gene. […] The proportion of dead cells was evaluated 7 days after the cells were transfected with the TDP-43 gene. […] Here, the relative viability indicates the proportion of the number of viable cells overexpressing TDP-43 based on 100% of the number of viable cells not overexpressing TDP-43. […] The CI was calculated using the following formula. […] CI=1 indicates an additive effect, CI>1 indicates an antagonistic effect, and CI<1 indicates a synergistic effect.

[4] = test system: Neuro2a cells; assay: Suppression of cell death in TDP-43-transfected Neuro2a cells (Reference Example 2); type: cell-based, Mouse; conditions: 10 to 10,000 nmol/L added 5 hours after transfection; evaluated 7 days after transfection (Figures 3, 4)
Method: Neuro2a cells were seeded on a dish. On the first day after seeding, differentiation into neurons was initiated. On the fourth day after seeding, cells were transfected with the TDP-43 gene. […] In addition, as a control, 10 nmol/L, 50 nmol/L, 100 nmol/L, 500 nmol/L, 1,000 nmol/L, 5,000 nmol/L, or 10,000 nmol/L of ropinirole was added to a culture medium.
The proportion of dead cells was evaluated 7 days after the cells were transfected with the TDP-43 gene.

[5] = test system: TDP-43; assay: Soluble/insoluble TDP-43 fractions in TDP-43-transfected Neuro2a cells, western blot (Reference Example 3); type: cell-based, Mouse; conditions: 10 µmol/L added 6 hours after transfection; for number of soluble fractions versus insoluble fractions of TDP-43: cultured for 12 hours (Figure 5); for proportion of insoluble fractions based on total of soluble and insoluble fractions of TDP-43: cultured for 12 hours (Figure 6)
Method: Mouse neuroblastoma (Neuro2a) cells were seeded on a dish. The Neuro2a cells were cultured in a culture medium containing DMEM+10% FBS at 37°C in the presence of 5% CO2. On the first day after seeding, differentiation into neurons was initiated. Differentiation into neurons was performed in a culture medium containing DMEM+2% FBS+20 µmol/L retinoic acid. On the fourth day after seeding, cells were transfected with synthesized TDP-43 mRNA by a lipofection method. Cells were sampled at 6 hours, 9 hours, 12 hours, 15 hours, 18 hours, and 21 hours after transfection. […] For sampling, cells were lysed in an RIPA buffer and centrifuged at 22,000×g for 30 minutes at 4°C, the supernatant was used as the soluble fraction, the precipitate was used as the insoluble fraction, and equal volumes of a 2×SDS sample buffer were added to the respective fractions and heated at 95°C for 5 minutes to prepare electrophoresis samples. The electrophoresis samples were subjected to electrophoresis using a polyacrylamide gel, TDP-43 was then transferred to a PVDF membrane. TDP-43 was detected through chemiluminescence using anti-TDP-43 antibodies as primary antibodies and HRP-conjugated anti-rabbit antibodies as secondary antibodies. […] The insoluble fractions of TDP-43 indicate the aggregation of TDP-43.
Neuro2a cells were seeded on a dish. On the first day after seeding, differentiation into neurons was initiated. On the fourth day after seeding, cells were transfected with the TDP-43 gene.

[6] = test system: TDP-43; assay: Soluble/insoluble TDP-43 fractions in motor neurons derived from iPS cells of healthy subjects, western blot (Reference Example 4); type: cell-based, human; conditions: 10 µmol/L, cultured for 20 days (Figure 7)
Method: 100 µL of an EHS-gel basement membrane matrix (commercially available from FUJIFILM Wako Pure Chemical Corporation) was added to 12.5 mL of DMEM (Dulbecco's Modified Eagle Medium, commercially available from FUJIFILM Wako Pure Chemical Corporation) and mixed, and the mixture was added to a 24-well plate at 600 µL per well. The plate was left at room temperature for 2 hours, and the solution was then removed from the wells. Next, 600 µL of DMEM was added to each well, and the plate was left at room temperature for 2 hours.
Motor neurons derived from iPS cells of healthy subjects and motor neurons derived from iPS cells of ALS patients were obtained from iXCells Biotechnologies. The motor neurons were quickly thawed in a thermostatic oven at 37°C and suspended in a motor neuron maintenance culture medium (iXCells Biotechnologies). […]
The soluble protein fractions and the insoluble protein fractions were subjected to SDS-PAGE, and the proteins were transferred to a PVDF membrane. […] Next, the PVDF membrane was washed three times with a buffer solution, 1 mL of a luminescence reagent (ImmunoStar LD, commercially available from FUJIFILM Wako Pure Chemical Corporation) was then used to induce luminescence from the labeled secondary antibodies, and the PVDF membrane was imaged.

[7] = test system: TDP-43; assay: Soluble/insoluble TDP-43 fractions in motor neurons derived from iPS cells of ALS patients, western blot (Reference Example 4); type: cell-based, human; conditions: 10 µmol/L; for bands for insoluble fractions of TDP-43: cultured for 20 days (Figure 7); for average proportion of insoluble fractions of TDP-43: cultured for 20 days, three experiments, untreated ALS about 46.1%, healthy about 7.4%
[8] = cited from earlier work; remark: listed apart in the source

Compound	Cmax ([1]; 15 mg orally administered to humans, read-out: maximum blood concentration (Cmax)) [µM]	half-life ([1]; in vivo)	trough value [2] [nmol/L]	EC50 ([3]; read-out: EC50 of the cell death suppressory effect of D-cycloserine, at 0 nmol/L of edaravone) [nM]	EC50 ([3]; read-out: EC50 of the cell death suppressory effect of D-cycloserine, at 10 nmol/L of edaravone) [nM]	EC50 ([3]; read-out: EC50 of the cell death suppressory effect of D-cycloserine, at 30 nmol/L of edaravone) [nM]	EC50 ([3]; read-out: EC50 of the cell death suppressory effect of D-cycloserine, at 100 nmol/L of edaravone) [nM]	EC50 ([3]; read-out: EC50 of the cell death suppressory effect of D-cycloserine, at 300 nmol/L of edaravone) [nM]	EC50 ([3]; read-out: EC50 of the cell death suppressory effect of D-cycloserine, at 1,000 nmol/L of edaravone) [nM]	cell death in cells transfected with the TDP-43 gene [4]	number of soluble fractions versus insoluble fractions of TDP-43 [5]	proportion of insoluble fractions based on total of soluble and insoluble fractions of TDP-43 [5]	bands for insoluble fractions of TDP-43 [6]	bands for insoluble fractions of TDP-43 [7]	average proportion of insoluble fractions of TDP-43 [7]	side effects ([8]; 150 mg administered to humans)	side effects ([8]; 250 mg administered to humans to treat tuberculosis)
N[C@@H]1CONC1=O [D-cycloserine, (4R)-4-Amino-1,2-oxazolidin-3-one]	~5.6	about 10 hours	> 128	151	149	135	119	107	87.6	cell death was inhibited; also recorded: exhibited an effect of inhibiting cell death in a concentration-dependent manner	the number of soluble fractions of TDP-43 was larger than the number of insoluble fractions of TDP-43	less than half	bands for insoluble fractions were unclear	bands for insoluble fractions were unclear	about 17.4%	headaches	serious side effects such as epileptiform seizure and mental confusion
N[C@H]1CONC1=O [L-cycloserine, (4S)-4-amino-1,2-oxazolidin-3-one]	–	–	–	–	–	–	–	–	–	exhibited an effect of inhibiting cell death in a concentration-dependent manner	the number of soluble fractions of TDP-43 was larger than the number of insoluble fractions of TDP-43	less than half	–	–	–	–	–
CCCN(CCC)CCc1cccc2c1CC(=O)N2 [ropinirole]	–	–	–	–	–	–	–	–	–	–	–	–	bands for insoluble fractions were unclear	bands for insoluble fractions were unclear	about 19.3%	–	–
